Values of other authors, collected in US11839630B2, “CAR-T cells targeting IL-1RAP and their use” (ETABLISSEMENT FRANCAIS DU SANG, priority 2017, dated 2023).

Assays:
CML [1] = details: cited from earlier work
CML [2] = details: cited from earlier work; remark: listed apart in the source

**Q.** Which “rate of molecular relapse after stopping TKI” value (CML [1]; n=100 patients with complete molecular response) does the source give for `Cc1ccc(NC(=O)c2ccc(CN3CCN(C)CC3)cc2)cc1Nc1nccc(-c2cccnc2)n1` [Imatinib] here?
**A.** 61%

**Q.** What about the “median time of molecular relapse” value (CML [1]; n=100 patients) of the same compound?
**A.** 2.5 months

**Q.** And the “patients relapsed after discontinuation” value (CML [2]; 42 of 69 patients, treatment of more than 2 years discontinued)?
**A.** 61%

**Q.** What about the “probability of persistent molecularly undetectable leukemia” value (CML [2]; at 12 months, 69 patients) of the same compound?
**A.** 41%
